Reference: US9260425B2 (Genetech, Inc., priority 2011, dated 2016)

Target: Pim-1 (Homo sapiens (Human), UniProt P11309)
Experiment: Pim kinase binding activity assay (Example 901), PIM-1 enzyme, Caliper microfluidic peptide phosphorylation
Format: biochemical
Details: 20 pM PIM-1, 10 μM ATP, 1 μM FAM-peptide, 90 minutes at room temperature
Method: Pim Kinase Binding Activity
A fluorescent-labeled Pim-specific peptide substrate, was custom synthesized by American Peptide Company (Sunnyvale, Calif.). Reaction Buffer contained 10 mM HEPES, pH 7.2, 10 mM MgCl2, 0.01% Tween 20, 2 mM DTT. Termination Buffer contained 190 mM HEPES, pH 7.2, 0.015% Brij-35, 0.2% Coating Reagent 3 (Caliper Life Sciences, Hopkinton, Mass.), 20 mM EDTA. Separation Buffer contained 100 mM HEPES, pH 7.2, 0.015% Brij-35, 0.1% Coating Reagent 3, 1:200 Coating Reagent 8 (Caliper Life Sciences, Hopkinton, Mass.), 10 mM EDTA and 5% DMSO.
PIM reactions were carried out in a final volume of 10 μL per well in a 384-well plate. A standard enzymatic reaction, initiated by the addition of 5 μL 2×ATP and test compound to 5 μL of 2× enzyme and FAM-peptide, contained 20 pM PIM-1, 50 pM PIM-2, or 55 pM PIM-3, 1 μM FAM-peptide, and 10 μM ATP, in Reaction Buffer. After 90 minutes of incubation at room temperature, the phosphorylation reaction was stopped by the addition of 10 μL Termination Buffer. The product and substrate in each independent reaction were separated on a 12-sipper microfluidic chip (Caliper Life Sciences, Hopkinton, Mass.) run on a Caliper LC3000® (Caliper Life Sciences, Hopkinton, Mass.). The separation of product and substrate was optimized by choosing voltages and pressure using Caliper's Optimizer software (Hopkinton, Mass.). […] The product and substrate fluorophore were excited at 488 nm and detected at 530 nm. Substrate conversion was calculated from the electropherogram using HTS Well Analyzer software (Caliper Life Sciences, Hopkinton, Mass.). Ki values for the test compound were calculated.

Sequence of Pim-1 (P11309 whole entry): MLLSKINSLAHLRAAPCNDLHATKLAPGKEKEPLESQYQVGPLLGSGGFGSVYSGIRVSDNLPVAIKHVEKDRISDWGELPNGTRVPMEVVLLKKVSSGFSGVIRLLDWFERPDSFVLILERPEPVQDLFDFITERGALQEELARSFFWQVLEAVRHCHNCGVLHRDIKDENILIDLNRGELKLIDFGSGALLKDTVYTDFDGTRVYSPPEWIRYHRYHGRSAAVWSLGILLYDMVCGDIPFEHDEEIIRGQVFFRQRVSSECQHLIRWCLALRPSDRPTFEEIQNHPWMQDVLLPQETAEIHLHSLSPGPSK

Compound | Ki [nM]
C1=C(c2n[nH]c3cnc(-c4cccnc4)cc23)CCC1 [Example 225, 3-cyclopentenyl-5-(pyridin-3-yl)-1H-pyrazolo[3,4-c]pyridine] | 2.83
O=C1CNCCN1c1cc2c(-c3cccc(N4CCNCC4)n3)n[nH]c2cn1 [Example 346, 1-(3-(6-(piperazin-1-yl)pyridin-2-yl)-1H-pyrazolo[3,4-c]pyridin-5-yl)piperazin-2-one] | 219
c1cncc(-c2cc3c(-c4ccncc4)n[nH]c3cn2)c1 [Example 194, 5-(pyridin-3-yl)-3-(pyridin-4-yl)-1H-pyrazolo[3,4-c]pyridine] | 8.77
NC1CCN(C(=O)c2cccc(-c3n[nH]c4cnc(-c5cccnc5)cc34)n2)CC1 [Example 336, (4-aminopiperidin-1-yl)(6-(5-(pyridin-3-yl)-1H-pyrazolo[3,4-c]pyridin-3-yl)pyridin-2-yl)methanone] | 12.7
N[C@H]1CCCN(c2cncc(-c3cc4c(-c5ccccc5F)n[nH]c4cn3)c2)C1 [Example 180, (S)-1-(5-(3-(2-fluorophenyl)-1H-pyrazolo[3,4-c]pyridin-5-yl)pyridin-3-yl)piperidin-3-amine] | 0.264
c1ccc(-c2n[nH]c3cnc(-c4cccnc4)cc23)nc1 [Example 204, 3-(pyridin-2-yl)-5-(pyridin-3-yl)-1H-pyrazolo[3,4-c]pyridine] | 11.6
c1cncc(-c2cc3c(CNC4CCNCC4)n[nH]c3cn2)c1 [Example 109, N-((5-(pyridin-3-yl)-1H-pyrazolo[3,4-c]pyridin-3-yl)methyl)piperidin-4-amine] | 3800
O[C@H]1CCN(c2nc(-c3n[nH]c4cnc(-c5cccnc5)cc34)ccc2Br)C1 [Example 318, (S)-1-(3-bromo-6-(5-(pyridin-3-yl)-1H-pyrazolo[3,4-c]pyridin-3-yl)pyridin-2-yl)pyrrolidin-3-ol] | 0.059
NC(=O)c1cccc(-c2n[nH]c3cnc(-c4cccnc4)cc23)c1 [Example 125, 3-(5-(pyridin-3-yl)-1H-pyrazolo[3,4-c]pyridin-3-yl)benzamide] | 307
NCCNC(=O)c1cccc(-c2n[nH]c3cnc(-c4cccnc4)cc23)n1 [Example 326, N-(2-aminoethyl)-6-(5-(pyridin-3-yl)-1H-pyrazolo[3,4-c]pyridin-3-yl)picolinamide] | 17.7

Second part, the molecule after the results:

Ki [nM] | Compound
0.16 | Cc1ccc(-c2n[nH]c3cnc(-c4cnn(C)c4)cc23)nc1N1CCOCC1 [Example 419, 4-(3-methyl-6-(5-(1-methyl-1H-pyrazol-4-yl)-1H-pyrazolo[3,4-c]pyridin-3-yl)pyridin-2-yl)morpholine]
0.022 | N#CCn1cc(-c2cc3c(-c4cccc(N5CCNCC5)n4)n[nH]c3cn2)cn1 [Example 473, 2-(4-(3-(6-(piperazin-1-yl)pyridin-2-yl)-1H-pyrazolo[3,4-c]pyridin-5-yl)-1H-pyrazol-1-yl)acetonitrile]
0.191 | Cn1cc(-c2cc3c(-c4ccc(Br)c(N5CCOCC5)n4)n[nH]c3cn2)cn1 [Example 449, 4-(3-bromo-6-(5-(1-methyl-1H-pyrazol-4-yl)-1H-pyrazolo[3,4-c]pyridin-3-yl)pyridin-2-yl)morpholine]
1.59 | Cn1cc(-c2cc3c(-c4ccc(Br)c(N5CC(N6CCS(=O)(=O)CC6)C5)n4)n[nH]c3cn2)cn1 [Example 387, 4-(1-(3-bromo-6-(5-(1-methyl-1H-pyrazol-4-yl)-1H-pyrazolo[3,4-c]pyridin-3-yl)pyridin-2-yl)azetidin-3-yl)-1,1-dioxothiomorpholine]
0.389 | CCn1cc(-c2cc3c(-c4nc(N5CCC[C@H](N)C5)ccc4Cl)n[nH]c3cn2)cn1 [Example 466, (S)-1-(5-chloro-6-(5-(1-ethyl-1H-pyrazol-4-yl)-1H-pyrazolo[3,4-c]pyridin-3-yl)pyridin-2-yl)piperidin-3-amine]
0.014 | CCn1cc(-c2cc3c(-c4cccc(N5CCNC[C@@H](O)C5)n4)n[nH]c3cn2)cn1 [Example 411, (R)-1-(6-(5-(1-ethyl-1H-pyrazol-4-yl)-1H-pyrazolo[3,4-c]pyridin-3-yl)pyridin-2-yl)-1,4-diazepan-6-ol]
